According to ChEMBL document CHEMBL1781890, “Inhibition of Myosin ATPase activity by halogenated pseudilins: a structure-activity study” (J Med Chem, 2011):

Key:
[1] = Inhibition of Dictyostelium discoideum myosin 2 motor domain-activated ATPase activity by spectrophotometry based PK/LDH coupled ATPase assay
Unconventional myosin-Va = Unconventional myosin-Va (Gallus gallus, UniProt Q02440); test: Inhibition of chicken myosin 5a assessed as ATP hydrolysis
[2] = Inhibition of Dictyostelium discoideum myosin 1b ATPase activity by spectrophotometric analysis

Sequence of Unconventional myosin-Va (Q02440 whole entry): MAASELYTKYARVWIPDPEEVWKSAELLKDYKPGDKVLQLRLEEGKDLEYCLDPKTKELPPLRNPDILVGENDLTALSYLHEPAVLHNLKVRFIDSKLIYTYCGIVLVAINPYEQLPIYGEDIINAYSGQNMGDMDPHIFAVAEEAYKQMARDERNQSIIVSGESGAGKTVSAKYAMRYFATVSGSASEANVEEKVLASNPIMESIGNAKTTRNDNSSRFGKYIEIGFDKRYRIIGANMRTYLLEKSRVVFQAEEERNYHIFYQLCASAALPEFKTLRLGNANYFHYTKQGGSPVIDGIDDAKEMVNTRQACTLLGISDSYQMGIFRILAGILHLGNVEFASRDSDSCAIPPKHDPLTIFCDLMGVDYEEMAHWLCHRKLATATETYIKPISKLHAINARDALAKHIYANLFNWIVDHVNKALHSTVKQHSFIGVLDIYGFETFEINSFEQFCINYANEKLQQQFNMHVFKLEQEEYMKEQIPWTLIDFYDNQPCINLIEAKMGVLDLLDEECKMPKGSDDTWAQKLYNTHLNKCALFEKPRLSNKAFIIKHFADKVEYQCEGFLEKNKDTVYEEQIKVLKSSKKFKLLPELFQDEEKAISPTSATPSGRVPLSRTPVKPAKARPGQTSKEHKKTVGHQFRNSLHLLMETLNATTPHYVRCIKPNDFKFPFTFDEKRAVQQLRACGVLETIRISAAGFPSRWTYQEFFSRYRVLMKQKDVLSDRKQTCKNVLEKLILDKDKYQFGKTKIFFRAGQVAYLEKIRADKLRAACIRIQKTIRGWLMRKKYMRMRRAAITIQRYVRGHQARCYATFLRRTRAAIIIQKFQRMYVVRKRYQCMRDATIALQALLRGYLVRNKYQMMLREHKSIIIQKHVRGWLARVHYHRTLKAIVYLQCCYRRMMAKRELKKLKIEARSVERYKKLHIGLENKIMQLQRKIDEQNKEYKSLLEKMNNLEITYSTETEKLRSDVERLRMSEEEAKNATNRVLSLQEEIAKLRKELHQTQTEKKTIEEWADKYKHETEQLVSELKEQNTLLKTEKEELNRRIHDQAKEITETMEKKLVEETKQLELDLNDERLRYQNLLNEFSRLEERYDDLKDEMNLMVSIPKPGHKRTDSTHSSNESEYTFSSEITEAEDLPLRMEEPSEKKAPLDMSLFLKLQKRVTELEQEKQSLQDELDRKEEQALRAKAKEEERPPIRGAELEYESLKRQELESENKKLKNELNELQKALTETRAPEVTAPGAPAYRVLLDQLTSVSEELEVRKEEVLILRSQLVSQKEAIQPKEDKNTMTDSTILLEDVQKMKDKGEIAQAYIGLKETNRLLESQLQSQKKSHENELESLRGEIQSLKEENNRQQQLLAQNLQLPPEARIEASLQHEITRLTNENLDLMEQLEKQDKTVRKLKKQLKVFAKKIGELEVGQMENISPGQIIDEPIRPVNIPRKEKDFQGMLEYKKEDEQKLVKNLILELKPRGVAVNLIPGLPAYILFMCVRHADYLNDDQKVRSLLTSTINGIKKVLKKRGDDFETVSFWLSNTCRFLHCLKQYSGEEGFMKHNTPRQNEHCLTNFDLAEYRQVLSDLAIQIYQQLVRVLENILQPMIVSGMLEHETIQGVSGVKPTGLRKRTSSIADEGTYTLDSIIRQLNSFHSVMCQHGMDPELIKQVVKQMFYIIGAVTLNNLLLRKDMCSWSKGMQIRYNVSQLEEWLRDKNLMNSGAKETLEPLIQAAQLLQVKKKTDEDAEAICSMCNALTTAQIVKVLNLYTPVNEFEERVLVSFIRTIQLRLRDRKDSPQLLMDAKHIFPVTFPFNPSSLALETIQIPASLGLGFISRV

In the case of `Oc1ccccc1-c1ccc[nH]1`, the IC50 [1] is reported as greater than 1000 µM.

Work on `COc1ccccc1-c1ccc[nH]1` yielded an IC50 [1] greater than 1000 µM.

Work on `COc1c(Br)cc(Br)cc1-c1[nH]c(Br)c(Br)c1Br` yielded an IC50 [1] of 91.9 µM.

Molecule `Cn1c(Br)c(Br)c(Br)c1-c1cc(Br)cc(Br)c1O` has an IC50 [1] of 125 µM.

`COc1ccccc1-c1[nH]c(Br)c(Br)c1Br` gave an IC50 [1] of 182 µM.

Work on `COc1c(Cl)cc(Cl)cc1-c1[nH]c(Cl)c(Cl)c1Cl` yielded an IC50 [1] of 274 µM.

`Oc1c(Br)cc(Br)cc1-c1[nH]c(Br)c(Br)c1Br` [PENTABROMOPSEUDILIN] gave an IC50 [1] of 24.4 µM and an IC50 (Unconventional myosin-Va) of 1.2 µM.

Molecule `Oc1c(Cl)cc(Cl)cc1-c1[nH]c(Cl)c(Cl)c1Cl` [PENTACHLOROPSEUDILIN] has an IC50 [2] of 1 µM and an IC50 [1] of 126 µM.
